US20240308976A1, “COMPOUNDS THAT MEDIATE PROTEIN DEGRADATION AND USES THEREOF” (Monte Rosa Therapeutics, Inc., priority 2021, published 2024)

How the values were obtained:
CRBN-DDB1 = CRBN-DDB1 (Homo sapiens, UniProt Q96SW2); test: Compound binding to CRBN by HTRF assay; details: CRBN-DDB1 2.5 nM, Cy5-Thalidomide 100 nM, 30 min at ambient temperature; read-out: HTRF Class (Cereblon binding, HTRF IC50)
Procedure: Example 146: Compound Binding to CRBN by HTRF Assay
Compound activity was monitored in a Homogenous Time-Resolved Fluorescence (HTRF) assay using 1-[5-({2-[2-(2-{[2-(2,6-dioxopiperidin-3-yl)-1,3-dioxo-2,3-dihydro-1H-isoindol-4-yl]oxy}acetamido)ethoxy]ethyl}carbamoyl)pentyl]-3,3-dimethyl-2-[(1E,3E)-5-[(2E)-1,3,3-trimethyl-5-sulfo-2,3-dihydro-1H-indol-2-ylidene]penta-1,3-dien-1-yl]-3H-indol-1-ium-5-sulfonate as a fluorescent probe. Biochemical assays were conducted in Greiner white 384 well HiBase plates (Cat. No 784075-25) in 10 μL total volume. A one pot detection solution of CRBN-DDB1 (2.5 nM), Anti-His Terbium Cryptate Gold (1X, PerkinElmer Cat. #: 61HI2TLB), and Cy5-Thalidomide (100 nM, Tenova Cat.: T52461) was prepared in 20 mM HEPES, 20 mM NaCl, 0.2 mM TCEP, 0.2 mM EDTA, and 0.005% Tween20 was dispensed to each assay plate. Compounds were stored in dry, ambient temperatures at 10 mM. A 10-point, 1:3 dilution series was prepared from 10 mM stock concentrations in Echo-compatible LDV plates. 10 nL of each compound dilution series was dispensed into assays wells using an Echo 650 (Labcyte inc. USA). 10 nL of 10 mM Lenalidomide was transferred into the active-control wells for the assay and 10 nL of DMSO was transferred into the neutral-control wells. The assay was then allowed to incubate for 30 min at ambient temperature after transferring compound. Plate measurements were taken on a Pherastar FSX (BMG Labtech, Germany) using the HTRF Red filter (Ex. 337 nm, em1: 620 nm, em2: 665 nm) (Flashes: 50, Integration time: 60-400 us, Z-height: 10 mm, Ratio-multiplier: 10,000). The HTRF signal was then subsequently normalized to the neutral and active controls. Analysis and IC50 values were derived using KNIME analytics (KNIME Zurich) transformation and fitting within Collaborative Drug Discovery (Collaborative Drug Discovery USA). Ki was derived from the geometric mean of the IC50 values using the Cheng-Prustoff transformation.
In Table 2, each compound is assigned a class (HTRF class) indicating the ability for Cereblon binding by means of their HTRF IC50 values according to […]: A, B, C or D. According to the code, A represents an IC50 value of ≤100 nM, B represents an IC50 value>100 nM and ≤1000 nM, C represents an IC50 value>1000 nM. IF Class assigns each compound a code indicating the ability for GSPT1 degradation: A, B or C. According to the code, A represents a DC50 value of ≤30 nM, B represents a DC50 value>30 nM and ≤300 nM and C represents a DC50 value of >300 nM.

GSPT1 = molecular target: T1, GSPT1 (Homo sapiens, UniProt P15170+Q96SW2); test: Immunofluorescence assay for activity to degrade GSPT1 in CAL-51 cells; assay type: cell-based; details: 6 h treatment, read-out: IF Class (GSPT1 degradation, DC50)
T1 construct: CAL-51 cells were purchased from DSMZ (cat. Number ACC302); host or cells: CAL-51
T1 sequence (P15170 whole entry): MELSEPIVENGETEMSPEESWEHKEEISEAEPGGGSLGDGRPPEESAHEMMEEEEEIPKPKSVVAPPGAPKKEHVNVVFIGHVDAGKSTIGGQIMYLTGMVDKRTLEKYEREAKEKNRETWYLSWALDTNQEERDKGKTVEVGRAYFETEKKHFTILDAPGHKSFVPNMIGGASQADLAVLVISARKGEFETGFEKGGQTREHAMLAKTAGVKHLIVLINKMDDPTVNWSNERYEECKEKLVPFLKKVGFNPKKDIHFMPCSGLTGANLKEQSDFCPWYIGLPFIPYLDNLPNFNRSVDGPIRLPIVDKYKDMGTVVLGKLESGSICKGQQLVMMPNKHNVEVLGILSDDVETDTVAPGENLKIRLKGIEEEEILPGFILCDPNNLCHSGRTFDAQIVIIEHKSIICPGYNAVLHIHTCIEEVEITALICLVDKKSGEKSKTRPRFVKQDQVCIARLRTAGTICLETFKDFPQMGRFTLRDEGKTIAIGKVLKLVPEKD
T1 sequence (Q96SW2 whole entry): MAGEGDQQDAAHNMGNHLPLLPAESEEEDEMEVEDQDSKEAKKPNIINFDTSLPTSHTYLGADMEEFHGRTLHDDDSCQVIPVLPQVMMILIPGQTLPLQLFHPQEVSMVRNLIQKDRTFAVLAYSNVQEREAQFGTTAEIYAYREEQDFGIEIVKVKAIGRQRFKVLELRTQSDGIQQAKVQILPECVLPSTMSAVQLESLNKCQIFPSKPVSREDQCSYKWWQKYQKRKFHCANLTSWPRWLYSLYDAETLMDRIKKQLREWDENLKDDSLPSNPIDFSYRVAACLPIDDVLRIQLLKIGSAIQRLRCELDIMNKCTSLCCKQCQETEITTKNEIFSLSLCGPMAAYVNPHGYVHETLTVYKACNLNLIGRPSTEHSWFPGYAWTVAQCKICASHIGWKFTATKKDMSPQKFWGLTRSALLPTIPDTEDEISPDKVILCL
T1 sequence (Q16531 2-1140 partner limits assumed): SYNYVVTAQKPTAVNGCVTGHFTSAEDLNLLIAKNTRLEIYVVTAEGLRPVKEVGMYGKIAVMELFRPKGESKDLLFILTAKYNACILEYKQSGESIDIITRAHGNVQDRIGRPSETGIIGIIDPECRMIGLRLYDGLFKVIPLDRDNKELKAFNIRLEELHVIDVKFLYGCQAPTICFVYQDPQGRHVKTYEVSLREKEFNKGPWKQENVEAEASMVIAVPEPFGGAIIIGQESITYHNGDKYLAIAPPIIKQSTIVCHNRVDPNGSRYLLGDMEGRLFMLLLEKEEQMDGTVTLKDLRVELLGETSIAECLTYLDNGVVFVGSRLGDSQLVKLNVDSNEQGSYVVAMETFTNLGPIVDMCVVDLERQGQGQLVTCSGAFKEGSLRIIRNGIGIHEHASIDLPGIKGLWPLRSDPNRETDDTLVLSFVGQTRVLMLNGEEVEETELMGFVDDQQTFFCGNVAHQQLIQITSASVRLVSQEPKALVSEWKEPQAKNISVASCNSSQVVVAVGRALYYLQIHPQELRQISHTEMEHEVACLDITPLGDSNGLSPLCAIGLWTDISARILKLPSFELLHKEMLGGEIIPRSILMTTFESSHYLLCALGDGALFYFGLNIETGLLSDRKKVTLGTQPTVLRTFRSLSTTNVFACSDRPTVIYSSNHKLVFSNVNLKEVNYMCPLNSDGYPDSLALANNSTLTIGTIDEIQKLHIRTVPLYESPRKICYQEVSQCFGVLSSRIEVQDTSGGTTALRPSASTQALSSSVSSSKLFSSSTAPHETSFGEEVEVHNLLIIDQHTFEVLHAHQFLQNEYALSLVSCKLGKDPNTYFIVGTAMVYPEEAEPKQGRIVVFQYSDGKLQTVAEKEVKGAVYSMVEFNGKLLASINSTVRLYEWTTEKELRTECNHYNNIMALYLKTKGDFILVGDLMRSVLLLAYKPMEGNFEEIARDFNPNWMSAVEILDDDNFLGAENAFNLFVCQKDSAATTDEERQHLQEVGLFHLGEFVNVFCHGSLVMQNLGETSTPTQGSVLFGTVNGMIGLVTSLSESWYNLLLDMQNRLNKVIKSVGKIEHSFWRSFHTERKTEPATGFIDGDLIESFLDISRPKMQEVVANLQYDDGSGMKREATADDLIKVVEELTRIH
How it was run: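 CAL-51 cells treated 6 h with compound (30 μM to 0.1 nM), fixed, immunostained for GSPT1 with DAPI and phalloidin counterstains, imaged by high-content microscopy. Mean per-cell GSPT1 intensity normalized to controls; DC50 by non-linear regression.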

Sequence of CRBN-DDB1 (Q96SW2 whole entry): as the sequence (Q96SW2 whole entry) above
Sequence of CRBN-DDB1 (Q16531 whole entry partner): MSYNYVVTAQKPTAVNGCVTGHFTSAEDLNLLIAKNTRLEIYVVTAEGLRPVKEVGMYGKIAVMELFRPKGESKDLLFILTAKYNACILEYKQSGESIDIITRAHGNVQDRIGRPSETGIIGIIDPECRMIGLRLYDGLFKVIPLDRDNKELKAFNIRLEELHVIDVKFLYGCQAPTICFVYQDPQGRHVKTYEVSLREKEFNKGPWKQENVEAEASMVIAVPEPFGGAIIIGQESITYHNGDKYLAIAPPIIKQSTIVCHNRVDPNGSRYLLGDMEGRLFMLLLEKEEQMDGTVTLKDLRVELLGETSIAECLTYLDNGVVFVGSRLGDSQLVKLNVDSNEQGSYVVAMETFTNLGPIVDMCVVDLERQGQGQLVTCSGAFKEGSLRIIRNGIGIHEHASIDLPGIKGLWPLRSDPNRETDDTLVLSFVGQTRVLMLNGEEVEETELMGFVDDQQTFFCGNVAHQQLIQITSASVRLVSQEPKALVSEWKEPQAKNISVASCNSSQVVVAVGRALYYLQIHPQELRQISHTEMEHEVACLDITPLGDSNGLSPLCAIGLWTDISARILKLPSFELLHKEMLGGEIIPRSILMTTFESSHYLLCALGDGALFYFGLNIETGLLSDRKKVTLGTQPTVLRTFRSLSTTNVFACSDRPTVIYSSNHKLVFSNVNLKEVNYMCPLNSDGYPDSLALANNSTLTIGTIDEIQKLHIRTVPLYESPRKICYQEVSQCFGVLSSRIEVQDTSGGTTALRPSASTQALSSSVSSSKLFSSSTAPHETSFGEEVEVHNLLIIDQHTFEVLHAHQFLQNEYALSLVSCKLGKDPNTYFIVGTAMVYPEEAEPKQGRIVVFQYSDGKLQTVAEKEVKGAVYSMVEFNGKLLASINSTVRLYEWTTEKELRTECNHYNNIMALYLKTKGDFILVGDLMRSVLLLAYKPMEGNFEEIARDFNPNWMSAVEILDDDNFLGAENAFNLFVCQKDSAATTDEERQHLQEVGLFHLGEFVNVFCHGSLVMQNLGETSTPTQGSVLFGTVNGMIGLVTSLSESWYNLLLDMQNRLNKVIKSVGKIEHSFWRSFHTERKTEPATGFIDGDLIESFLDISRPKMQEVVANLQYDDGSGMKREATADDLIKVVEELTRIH

IC50 (CRBN-DDB1) [nM] | DC50 (GSPT1) [nM] | Structure (SMILES)
100 to 1000 | > 300 | Cc1cc(C)cc(NC(=O)NC2CN(c3ccc(C4CCC(=O)NC4=O)c(Cl)c3)C2)c1 (stereo not drawn) [Compound 35, 1-(1-(3-chloro-4-(2,6-dioxopiperidin-3-yl)phenyl)azetidin-3-yl)-3-(3,5-dimethylphenyl)urea]
> 1000 | 30 to 300 | O=C1CCC(c2ccc(N3CC(OC(=O)Nc4cccc(OC(F)(F)F)c4)C3)cc2Cl)C(=O)N1 (stereo not drawn) [Compound 36, 1-(3-chloro-4-(2,6-dioxopiperidin-3-yl)phenyl)azetidin-3-yl (3-(trifluoromethoxy)phenyl)carbamate]
100 to 1000 | ≤ 30 | O=C1CCC(c2c(F)cc(N3CC(OC(=O)Nc4cccc(OC5CC5)c4)C3)cc2F)C(=O)N1 (stereo not drawn) [Compound 37, 1-(4-(2,6-dioxopiperidin-3-yl)-3,5-difluorophenyl)azetidin-3-yl (3-cyclopropoxyphenyl)carbamate]
100 to 1000 | 30 to 300 | O=C1CCC(c2c(F)cc(N3CC(OC(=O)Nc4cc(Cl)cc(OC(F)F)c4)C3)cc2F)C(=O)N1 (stereo not drawn) [Compound 38, 1-(4-(2,6-dioxopiperidin-3-yl)-3,5-difluorophenyl)azetidin-3-yl(3-chloro-5-(difluoromethoxy)phenyl) carbamate]
100 to 1000 | ≤ 30 | Cc1cc(NC(=O)OC2CN(c3cc(F)c(C4CCC(=O)NC4=O)c(F)c3)C2)c(F)cc1Cl (stereo not drawn) [Compound 39, 1-(4-(2,6-dioxopiperidin-3-yl)-3,5-difluorophenyl)azetidin-3-yl(4-chloro-2-fluoro-5-methylphenyl)carbamate]
100 to 1000 | ≤ 30 | CC1(c2ccc(NC(=O)NC3CN(c4cc(F)c(C5CCC(=O)NC5=O)c(F)c4)C3)cn2)CC1 (stereo not drawn) [Compound 40, 1-(1-(4-(2,6-dioxopiperidin-3-yl)-3,5-difluorophenyl)azetidin-3-yl)-3-(6-(1-methylcyclopropyl)pyridin-3-yl)urea]
100 to 1000 | > 300 | O=C1CCC(c2ccc(N3CC(NC(=O)Nc4cccc(OC(F)(F)F)c4)C3)cc2Cl)C(=O)N1 (stereo not drawn) [Compound 41, 1-(1-(3-chloro-4-(2,6-dioxopiperidin-3-yl)phenyl)azetidin-3-yl)-3-(3-(trifluoromethoxy)phenyl)urea]
100 to 1000 | 30 to 300 | Cc1ccc(NC(=O)NC2CN(c3ccc(C4CCC(=O)NC4=O)c(Cl)c3)C2)cc1Cl (stereo not drawn) [Compound 42, 1-(1-(3-chloro-4-(2,6-dioxopiperidin-3-yl)phenyl)azetidin-3-yl)-3-(3-chloro-4-methylphenyl)urea]
100 to 1000 | ≤ 30 | CC1(c2ccc(NC(=O)OC3CN(c4cc(F)c(C5CCC(=O)NC5=O)c(F)c4)C3)cn2)CC1 (stereo not drawn) [Compound 43, 1-(4-(2,6-dioxopiperidin-3-yl)-3,5-difluorophenyl)azetidin-3-yl(6-(1-methylcyclopropyl)pyridin-3-yl) carbamate]
100 to 1000 | 30 to 300 | O=C1CCC(c2c(F)cc(N3CC(OC(=O)Nc4cc(F)cc(OC(F)F)c4)C3)cc2F)C(=O)N1 (stereo not drawn) [Compound 44, 1-(4-(2,6-dioxopiperidin-3-yl)-3,5-difluorophenyl)azetidin-3-yl (3-(difluoromethoxy)-5-fluorophenyl)carbamate]
100 to 1000 | ≤ 30 | O=C1CCC(c2c(F)cc(N3CC(OC(=O)Nc4ccc(-c5ccccn5)cc4)C3)cc2F)C(=O)N1 (stereo not drawn) [Compound 45, 1-(4-(2,6-dioxopiperidin-3-yl)-3,5-difluorophenyl)azetidin-3-yl (4-(pyridin-2-yl)phenyl)carbamate]
100 to 1000 | 30 to 300 | COc1c(N2CC(OC(=O)Nc3ccc(C)c(Cl)c3)C2)cc(F)c(C2CCC(=O)NC2=O)c1F (stereo not drawn) [Compound 46, 1-(4-(2,6-dioxopiperidin-3-yl)-3,5-difluoro-2-methoxyphenyl)azetidin-3-yl (3-chloro-4-methylphenyl) carbamate]
100 to 1000 | 30 to 300 | N#Cc1cc(Cl)cc(NC(=O)OC2CN(c3cc(F)c(C4CCC(=O)NC4=O)c(F)c3)C2)c1 (stereo not drawn) [Compound 47, 1-(4-(2,6-dioxopiperidin-3-yl)-3,5-difluorophenyl)azetidin-3-yl(3-chloro-5-cyanophenyl)carbamate]
100 to 1000 | ≤ 30 | Cc1cc(NC(=O)OC2CN(c3cc(F)c(C4CCC(=O)NC4=O)c(F)c3)C2)cc(C)c1C#N (stereo not drawn) [Compound 48, 1-(4-(2,6-dioxopiperidin-3-yl)-3,5-difluorophenyl)azetidin-3-yl (4-cyano-3,5-dimethylphenyl) carbamate]
100 to 1000 | 30 to 300 | Cc1cc(C#N)cc(NC(=O)OC2CN(c3cc(F)c(C4CCC(=O)NC4=O)c(F)c3)C2)c1 (stereo not drawn) [Compound 49, 1-(4-(2,6-dioxopiperidin-3-yl)-3,5-difluorophenyl)azetidin-3-yl (3-cyano-5-methylphenyl) carbamate]
100 to 1000 | 30 to 300 | O=C1CCC(c2c(F)cc(N3CC(NC(=O)Nc4cc(F)cc(OC(F)(F)F)c4)C3)cc2F)C(=O)N1 (stereo not drawn) [Compound 50, 1-(1-(4-(2,6-dioxopiperidin-3-yl)-3,5-difluorophenyl)azetidin-3-yl)-3-(3-fluoro-5-(trifluoromethoxy)phenyl)urea]
100 to 1000 | ≤ 30 | O=C1CCC(c2c(F)cc(N3CC(OC(=O)Nc4cnc(-c5ccccc5)nc4)C3)cc2F)C(=O)N1 (stereo not drawn) [Compound 51, 1-(4-(2,6-dioxopiperidin-3-yl)-3,5-difluorophenyl)azetidin-3-yl(2-phenylpyrimidin-5-yl)carbamate]
100 to 1000 | ≤ 30 | Cc1c(Cl)cc(NC(=O)OC2CN(c3cc(F)c(C4CCC(=O)NC4=O)c(F)c3)C2)cc1OCCN1CCOCC1 (stereo not drawn) [Compound 52, 1-(4-(2,6-dioxopiperidin-3-yl)-3,5-difluorophenyl)azetidin-3-yl(3-chloro-4-methyl-5-(2-morpholinoethoxy)phenyl)carbamate]
100 to 1000 | 30 to 300 | Cc1c(Cl)cc(NC(=O)OC2CN(c3cc(F)c(C4CCC(=O)NC4=O)c(F)c3)C2)cc1C#N (stereo not drawn) [Compound 53, 1-(4-(2,6-dioxopiperidin-3-yl)-3,5-difluorophenyl)azetidin-3-yl(3-chloro-5-cyano-4-methylphenyl) carbamate]
> 1000 | 30 to 300 | Cc1ccc(NC(=O)OC2CN(c3ccc(C4CCC(=O)NC4=O)c(Cl)c3F)C2)cc1Cl (stereo not drawn) [Compound 54, 1-(3-chloro-4-(2,6-dioxopiperidin-3-yl)-2-fluorophenyl)azetidin-3-yl(3-chloro-4-methylphenyl)carbamate]
> 1000 | 30 to 300 | Cc1ccc(NC(=O)OC2CN(c3ccc(C4CCC(=O)NC4=O)cc3)C2)cc1Cl (stereo not drawn) [Compound 55, 1-(4-(2,6-dioxopiperidin-3-yl)phenyl)azetidin-3-yl (3-chloro-4-methylphenyl)carbamate]
> 1000 | 30 to 300 | COc1cc(C2CCC(=O)NC2=O)c(Cl)cc1N1CC(OC(=O)Nc2ccc(C)c(Cl)c2)C1 (stereo not drawn) [Compound 56, 1-(5-chloro-4-(2,6-dioxopiperidin-3-yl)-2-methoxyphenyl)azetidin-3-yl (3-chloro-4-methylphenyl)carbamate]
> 1000 | 30 to 300 | Cc1ccc(NC(=O)OC2CN(c3ccc(C4CCC(=O)NC4=O)c(C#N)c3)C2)cc1Cl (stereo not drawn) [Compound 57, 1-(3-cyano-4-(2,6-dioxopiperidin-3-yl)phenyl)azetidin-3-yl(3-chloro-4-methylphenyl)carbamate]
100 to 1000 | 30 to 300 | CC1(c2ccc(NC(=O)OC3CN(c4cc(F)c(C5CCC(=O)NC5=O)c(F)c4)C3)cc2)CC1 (stereo not drawn) [Compound 58, 1-(4-(2,6-dioxopiperidin-3-yl)-3,5-difluorophenyl)azetidin-3-yl (4-(1-methylcyclopropyl)phenyl)carbamate]
